# Laboratory results: patent publication US10982192B2, “Method for the induction of arterial-type of hemogenic endothelium from hPSCS” (Wisconsin Alumni Research Foundation, priority 2017, dated 2021)
# Experiments:
# D4+4 CD43+ cells = test: T-cell differentiation of D4+4 cultures on OP9-DLL4; assay type: cell-based, human
# Method: Total D4+4 cultures were singularized, strained, and cultured in T-cell differentiation conditions on OP9-DLL4 for 3 weeks as described^35. For D5+4 cultures, only the floating hematopoietic cells were collected and cultured in T-cell differentiation conditions. Limiting Dilution Assays were conducted with the floating cells collected from D5+4 cultures (HE:DLL4^− on OP9+DAPT, OP9+DMSO, and OP9-DLL4, and HE:DLL4^+ on OP9-DLL4). Row A of a 96-well plate received 500 cells/well, and each subsequent row afterwards had half the previous row (Row B contained 250, Row C contained 125 . . . Row H contained 3-4 cells). The wells were scored 2 weeks later by eye and flow-cytometry for CD5^+CD7^+ containing cells. Positive threshold was set at 167 CD5^+CD7^+ cells/well. Extreme limiting dilution analysis was conducted using the previously established algorithm^88
# D5 HE:DLL4+ = test: Blood production from D5 HE:DLL4+ in OP9 co-culture with NOTCH inhibition; assay type: cell-based, human; settings: treatment from D5 to D5+2, D5+2 to D5+4, and D5 to D5+4; 20 μM
# Method: (§1) OP9, OP9-DLL4, and the inducible OP9-iDLL4 (made in-house) cell lines were maintained in αMEM with 20% FBS (GE) on gelatin-coated plates in normoxia as previously described^86. Using TrypLE (Thermo), OP9 were passaged at a 1:8 ratio every 3-4 days when they were 80% confluent. One day before co-culture with differentiated human HE cells, OP9 lines were treated with mitomycin C (1 mg/ml) for 2 hours and then plated at a density of 12,500 cells/cm^2 as previously described^87. D4 HE cells or D5 CD144^+ subsets were plated onto OP9 lines at a density between 1000 to 2000 cells/cm^2 in medium containing αMEM with 10% FBS (GE), TPO, SCF, IL-6 (50 ng/ml), IL-3, and FLT3L (10 ng/ml). Medium was changed after 24 hours, and extra medium added 2 days later. Experiments conducted with DAPT were treated with 20 μM, while corresponding control conditions had DMSO added at a 1:500 dilution.
# [1] = test system: cells collected from D4+4 HE cultures; test: Hematopoietic colony forming unit assay; assay type: cell-based, human; settings: cells from D4+4 HE cultures in methocellulose, vs control
# Method: Hematopoietic colony forming unit assay was conducted in serum-containing H4436 Methocult (Stem Cell Technologies) as previously described^26, 35.
# D5 HE:DLL4- = test: Blood production from D5 HE:DLL4- in OP9 co-culture with NOTCH inhibition; assay type: cell-based, human; settings: DAPT 20 μM
# Method: as §1
# D4 HE = test: Single-cell deposition assay for endothelial-to-hematopoietic transition on OP9-iDLL4; assay type: cell-based, human; settings: OP9-iDLL4 without DOX-pretreatment, DAPT 20 μM, compared to control condition
# Method: One day before single-cell deposition, the OP9-iDLL4 cell line was treated with mitomycin C as described above, and passaged into 96-well plates at a density of 12,500 cells/cm2. OP9-iDLL4 used for the NOTCH activation condition was incubated with doxycycline for 24 hours after passaging into 96-well plates. On the day of single-cell sorting, OP9-iDLL4 medium was changed to αMEM with 10% FBS (GE), TPO, SCF, IL-6 (50 ng/ml), IL-3, FLT3L (10 ng/ml), and DMSO (1:500) for the control, and NOTCH activation conditions, or DAPT (20 μM) for the NOTCH inhibition condition. Day 4 differentiated human pluripotent stem cells were singularized, stained for CD309-PE and CD144-APC (Miltenyi Biotech), and single-cell sorted into individual wells of the 96-well plates using a FACS Aria II. To exclude possibility of doublets, we used a low density (less than 1 million cells/ml) cells suspension, sorting speed less than 1000 cellular events/per second and stringent gating on single cells using both FSC-A vs FSC-H and SSC-A vs SSC-H. One day after sorting, the medium was changed to fresh medium without DMSO or DAPT, and extra medium was added every 3 days. […]
# D4 HE cells = test: Annexin V flow cytometric analysis of apoptosis; assay type: cell-based, human; settings: D4+4
# NOTCH1 = test: Western blot of activated cleaved NOTCH1 (NOTCH:ICD) in D4 HE; assay type: cell-based, human; settings: D4 HE cultured for 24 h (D4+1); DAPT 10 μM or immobilized DLL1-Fc
# Method: (§2) Human pluripotent stem cells, H1 hESC line, DF19-9-7T fibroblast-hiPSC line, IISH2i-BM9 bone marrow-iPSC line, and IISH3i-CB6 cord blood-iPSC line, were maintained and passaged in chemically defined conditions using vitronectin and E8 medium, as previously described^85. The human PSCs were differentiated into hematoendothelial lineages using a modified protocol previously described^35. On Day −1, hPSCs were singularized and plated on collagen IV-coated plates (0.5 μg/cm^2) at a cell density of 7,500 cells/cm^2 in E8 medium supplemented with 10 uM Rock inhibitor (Y-27632, Cayman Chemicals). On Day 0, the medium was changed to IF9S medium supplemented with BMP4, FGF2 (50 ng/ml), Activin A (15 ng/ml, Peprotech), LiCl (2 mM, Sigma), and ROCK inhibitor (0.5 μM, Cayman Chemicals) and cultured in hypoxia (5% O2, 5% CO2). On day 2, the medium was changed to IF9S medium supplemented with FGF2, VEGF (50 ng/ml, Peprotech), and 2.5 μM TGFβ inhibitor (SB-431542, Cayman Chemicals). On day 4, cell cultures were singularized and stained with anti-CD31 microbeads (Miltenyi) for 15 minutes. Cells were washed and HE were purified using CD31 antibody and MACS LS columns (Miltenyi). […] A sample of the purified cells was analyzed by flow cytometry, and experiments were continued only if the purity of the HE was over 95% CD144^+. […]
# HES1 = test: qPCR of NOTCH1 target gene HES1 in D4 HE; assay type: cell-based, human; settings: D4 HE cultured for 12 hours (D4+0.5)
# Method: as §2, with “CO2).” for “CO2). On day 2, the medium was changed to IF9S medium supplemented with FGF2, VEGF (50 ng/ml, Peprotech), and 2.5 μM TGFβ inhibitor (SB-431542, Cayman Chemicals). On day 4, cell cultures were singularized and stained with anti-CD31 microbeads (Miltenyi) for 15 minutes. Cells were washed and HE were purified using CD31 antibody and MACS LS columns (Miltenyi).”
# Cells were differentiated for the respective days and sorted on a FACS Aria II. RNA was collected using RNA MiniPrep Plus (Invitrogen) and quantified on a NanoDrop (GE Healthcare). […] The reactions were run on a Mastercycler RealPlex Thermal Cycler (Eppendorf) and the expression levels were calculated by minimal cycle threshold values (Ct) normalized to the reference expression of RPL13a. […]
# [2] = test system: CD34+CD43-CD73- HE progenitors; settings: NOTCH inhibition; cited from earlier work
# Runx1+23 enhancer = test: Runx1+23-eGFP reporter flow cytometry; assay type: cell-based, human; settings: D4 HE cultured with DAPT or on DLL1-Fc
# Method: Runx1+23 enhancer fragment^33 was amplified by PCR and subsequently cloned into the AAVS-SA-2A-PURO vector (gift from Gadue Lab, The Children's Hospital of Philadelphia). Human ESCs were transfected with zinc-finger nuclease vectors and later puromycin-resistant individual cells were clonally expanded and on-targeted clones were selected, as previously described^38. Southern Blot (SB) analysis was performed by DIG-labeling hybridization (Roche). Briefly, 10 μg genomic DNA was digested using a EcoRV restriction enzyme for overnight, separated on a 0.7% agarose gel for 6 hours, transferred to a nylon membrane (Amersham), and incubated with DIG-labeling probes. The external probe is a DIG-labeled 600 nucleotide fragment that binds to the EcoRV-digested fragment of the 5′ external region. The internal probe is a DIG-labeled 700 nucleotide fragment that binds to the EcoRV-digested fragment of the of the eGFP region.
# Flow Cytometry was conducted using the MACSQuant 10 (Miltenyi Biotech). FACS-sorting was conducted on a FACS Aria II (BD) as previously described^26, 35, 86.
# [3] = test system: D4 CD144+CD43-CD73- HE cells; test: Flow cytometry of CD144/CD43 in secondary culture of D4 HE (hematopoiesis/EHT), serum- and feeder-free; assay type: cell-based, human
# Method: Human pluripotent stem cells, H1 hESC line, DF19-9-7T fibroblast-hiPSC line, IISH2i-BM9 bone marrow-iPSC line, and IISH3i-CB6 cord blood-iPSC line, were maintained and passaged in chemically defined conditions using vitronectin and E8 medium, as previously described^85. The human PSCs were differentiated into hematoendothelial lineages using a modified protocol previously described^35. On Day −1, hPSCs were singularized and plated on collagen IV-coated plates (0.5 μg/cm^2) at a cell density of 7,500 cells/cm^2 in E8 medium supplemented with 10 uM Rock inhibitor (Y-27632, Cayman Chemicals). On Day 0, the medium was changed to IF9S medium supplemented with BMP4, FGF2 (50 ng/ml), Activin A (15 ng/ml, Peprotech), LiCl (2 mM, Sigma), and ROCK inhibitor (0.5 μM, Cayman Chemicals) and cultured in hypoxia (5% O2, 5% CO2). On day 2, the medium was changed to IF9S medium supplemented with FGF2, VEGF (50 ng/ml, Peprotech), and 2.5 μM TGFβ inhibitor (SB-431542, Cayman Chemicals). On day 4, cell cultures were singularized and stained with anti-CD31 microbeads (Miltenyi) for 15 minutes. Cells were washed and HE were purified using CD31 antibody and MACS LS columns (Miltenyi). Purified CD31^+ HE were then plated at a density of 20,000 to 30,000 cells/cm^2 on collagen IV-coated plates (1 μg/cm^2) that were either co-coated with IgG-Fc fragments or human DLL1-Fc (made in-house), in IF9S medium supplemented with FGF2, VEGF, EGF, IGF-I, IGF-II, TPO, IL-6 (50 ng/ml), SCF (20 ng/ml), IL-3, FLT3L (10 ng/ml, Peprotech), and ROCK inhibitor (5 μM, Cayman Chemicals), and where specified, DMSO (1:1000, Fisher Scientific) or DAPT (10 μM, Cayman Chemicals), and cultured in normoxia (20% O2, 5% CO2). In some experiments, HE was cultured on plates co-coated with human JAG1-Fc (R&D Systems). A sample of the purified cells was analyzed by flow cytometry, and experiments were continued only if the purity of the HE was over 95% CD144^+. On Day 4+1, the medium was replaced with fresh medium containing the same supplements without ROCK inhibitor. […]
# D4 CD31+ HE cells = test: CellTracer proliferation assay and EdU cell cycle analysis; assay type: cell-based, human
# Method: D4 CD31^+ HE cells were incubated in PBS with CellTracer (1 μg/ml, Thermo) for 20 minutes at 37° C. After washing, the cells were plated on collagen IV-coated plates with either Fc-IgG or DLL1-Fc and the modified Day 4 medium, as described above, at a higher density of 30,000 to 40,000 cells/cm^2 due to toxicity from the CellTracer. Aliquots of the purified cells were analyzed by flow cytometry to determine the purity of the MACS cells and establish the Generation 0 peak for the proliferation assay. Secondary cultures were collected every day after plating for flow cytometry analysis, and calibration beads were used to generate compatible CellTracer results. After D4+4, FlowJo™ Analysis software was used to concatenate the data from each day. The average number of cell divisions was calculated based on the number of cells on each day (FIG. 1F) and applied to the proliferation platform algorithm in FlowJo™ to determine the specific generation gates. Those peaks were re-applied to individual sets of data to determine the percentage of each generation within the hematoendothelial populations. For cell cycle analysis, D4+4 cells were incubated in culture medium with EdU (10 μM, Thermo Fisher) for 2 hours and stained with CD43 and CD144 antibodies for 20 min. […]
smiles,measurement,setting,value
C[C@H](NC(=O)Cc1cc(F)cc(F)c1)C(=O)N[C@H](C(=O)OC(C)(C)C)c1ccccc1 [DAPT],T-cell potential of HPs,D4+4 CD43+ cells,no T-cell potential
same,hematopoietic activity of the HE:DLL4+ population,D5 HE:DLL4+,significantly inhibited hematopoietic activity
same,total number of colonies,[1],significantly lower
same,hematopoietic activity of HE:DLL4- cultures,D5 HE:DLL4-,no effect on hematopoietic activity
same,ratio of hematopoietic/endothelial colonies,D4 HE,markedly decreased
same,apoptosis of blood cells post-transition,D4 HE cells,none of the conditions affected apoptosis
same,activated cleaved form of NOTCH1,NOTCH1,decrease
same,HES1 mRNA expression,HES1,decreased
same,production of CD45+ cells,[2],reduces production of CD45^+ cells
same,Runx1+23 enhancer activity (eGFP),Runx1+23 enhancer,decreases
same,CD43+ HPs,[3]; each day from D4+1 to D4+4,decreased CD43+ HPs
same,CD43hi CD144- cells on D4+2 through D4+4,[3]; treated for 24-hours from D4 to D4+1,significant drop
same,hematopoiesis,[3]; treatment throughout (D4 to D4+4),more profoundly decreased hematopoiesis
same,cycling CD43+ cells (EdU),D4 CD31+ HE cells; D4+4,no differences
same,distribution of CD43+ cells within each generation,"D4 CD31+ HE cells; D4+4, treated through D4+4",no significant shift
